Tests used:
[1] = test system: forebrain neuroepithelial tissues; experiment: Singular neural rosette emergence in micropatterned forebrain neuroepithelial tissues, with ROCK inhibition; type: cell-based, human; conditions: for singular rosette emergence efficiency: presence of 10 μM ROCK inhibitor, 5 days
Excerpt: (§1) NEC biomechanical properties vary by regional phenotype and affect rosette emergence behavior: The inefficient induction of singular rosette emergence in spinal neuroepithelial tissues under micropatterning conditions that were highly efficient for forebrain NECs prompted a re-examination of the optimal circular micropattern size for each regional phenotype. Moreover, we investigated how altering the biomechanical properties of each regional neuroepithelial tissue, by partial inhibition of the Rho-associated protein kinase (ROCK), would affect which micropattern size induced optimal singular rosette emergence. D-1 hESCs and 72-hr caudalized NMPs were seeded at 100,000 and 250,000 cells/cm^2, respectively, onto 150 (0.018 mm^2), 180 (0.025 mm^2), 200 (0.031 mm^2), 250 (0.049 mm^2), and 400 μm (0.126 mm^2) diameter circular micropattern arrays to generate forebrain and spinal neuroepithelial tissues (FIGS. 6A-6B and 6D-6E). […] Similar to our previous results, the efficiency of singular neural rosette emergence for forebrain tissues peaked at 85% on 250 μm (0.049 mm^2) diameter circular micropatterns (FIG. 6C). However, in the presence vs. absence of ROCK inhibitor, the efficiency curve shifted leftward inducing singular rosette emergence in 75% vs. 0% of 150 μm (0.018 mm^2), 89% vs. 50% of 180 μm (0.025 mm^2), 87% vs. 58% of 200 μm (0.031 mm^2), and 11% vs. 85% of 250 μm (0.049 mm^2) diameter forebrain neuroepithelial tissues, respectively.
Generation of Micropatterned Forebrain Neural Tissues: WA09 or HUES3 Hb9::GFP hESCs were maintained in Essential 8 medium (E8) on MATRIGEL™-coated TCPS plates and routinely passaged with Versene (Thermo Fisher). NEC derivation from hPSCs was performed in accordance with the E6 protocol (23). To generate NEC-derived micropatterned tissues at various stages of neural derivation, cells were first rinsed with PBS, dissociated with Accutase (Thermo Fisher) for 5 minutes at 37° C., and collected via centrifugation at 1000 rpm for 5 minutes. Singularized NECs were re-suspended in E6 media with 10 μM ROCK inhibitor (Y27632; R&D Systems) and seeded onto micropatterned substrates at 75,000 cells/cm^2 in 2 mL of media per well. The following day the media was replaced with 2 mL of E6 media and 50% media changes were performed daily thereafter. Alternatively, to generate hPSC-derived micropatterned tissues, hPSC cultures at ˜85% confluency were rinsed with PBS, dissociated with Accutase for 5 minutes at 37° C. and collected via centrifugation at 1000 rpm for 5 minutes. Singularized hPSCs were then suspended in E8 media with 10 μM ROCK inhibitor and seeded onto micropatterned substrates at 100,000 cells/cm^2 in 2 mL of media per well. The following day the media was replaced with 2 mL of E6 media and 50% media changes were performed daily thereafter.
Immunocytochemistry and Microscopy: Micropatterned tissues were rinsed with PBS and fixed with 4% paraformaldehyde (PFA, Sigma Aldrich) in PBS for 10 minutes at room temperature. Following three rinses with phosphate buffered saline (PBS), the micropatterned substrates were blocked and permeabilized in PBS with 5% Donkey Serum and 0.3% Triton X-100 (TX100; Thermo Fisher) (PBS-DT) for 1 hour at room temperature. Next, the tissues were incubated with primary antibodies diluted in PBS-DT for 2 hours at room temperature or overnight at 4° C. Then, the substrates were rinsed in PBD-DT 3 times for 15 minutes each. Secondary antibodies were diluted in PBS-DT and exposed to the tissues for 1 hour at room temperature. Tissue nuclei were subsequently stained with 300 nM 4′,6-diamidino-2-phenylindoldihydrochloride (DAPI, Sigma Aldrich) for 30 minutes followed by three 15 minute PBS washes. The micropatterned substrates were mounted on glass coverslips using Prolong Gold Antifade Reagent (Thermo Fisher). […]

[2] = test system: spinal neuroepithelial tissues; experiment: Singular neural rosette emergence in micropatterned spinal neuroepithelial tissues, with ROCK inhibition; type: cell-based, human; conditions: for effect on ability to form neural rosettes: 10 μM ROCK inhibitor, 5 days, spinal neuroepithelial tissues, dihydrochloride
Excerpt: as §1
Generation of Micropatterned Spinal Cord Neuroepithelial Tissues: Caudalization of hPSC-derived cultures to generate micropatterned neuroepithelial tissues of the cervical/thoracic spinal cord was performed using a modified version of the deterministic HOX patterning protocol (36). Human PSCs were dissociated with Accutase and seeded onto MATRIGEL™-coated, 6-well TCPS plates at 150,000 cells/cm^2 in E8 media comprising 10 μM ROCK inhibitor. […]

## C[C@@H](N)[C@H]1CC[C@H](C(=O)Nc2ccncc2)CC1.Cl.Cl [ROCK inhibitor, (+)-(R)-trans-4-(1-aminoethyl)-N-(4-pyridyl)cyclohexanecarboxamide dihydrochloride]
[1]; 10 μM Rock inhibitor, forebrain NECs
  effect on rosette formation capacity: only partially diminish
[1]; forebrain tissues of a given micropattern size, 10 μM
  NEC density in presence vs. absence of ROCK inhibitor: did not vary significantly
[1]; 150 μm (0.018 mm^2) diameter circular micropatterns
  singular rosette emergence efficiency: 75%
[1]; 180 μm (0.025 mm^2) diameter circular micropatterns
  singular rosette emergence efficiency: 89%
[1]; 200 μm (0.031 mm^2) diameter circular micropatterns
  singular rosette emergence efficiency: 87%
[1]; 250 μm (0.049 mm^2) diameter circular micropatterns
  singular rosette emergence efficiency: 11%
[2]
  effect on ability to form neural rosettes: completely abolished their ability form neural rosettes
[2]; listed as Rock inhibitor
  effect on ability to form neural rosettes: fully eliminate
[2]; spinal tissues of a given micropattern size, 10 μM
  NEC density in presence vs. absence of ROCK inhibitor: did not vary significantly
